{
  "source": "ChEMBL document CHEMBL1212708",
  "about": "“Sialic acid dependence in rotavirus host cell invasion” (Nat Chem Biol, 2009)",
  "key": {"Rotavirus [1]": {"system": "Rotavirus", "experiment": "Binding affinity to sialidase-insensitive Rotavirus Wa VP8 protein at 0.46 mM by STD NMR spectral analysis"}, "Rotavirus [2]": {"system": "Rotavirus", "experiment": "Binding affinity to […] Rotavirus CRW-8 VP8 at 1.2 mM by STD NMR spectrum"}, "Rotavirus [3]": {"system": "Rotavirus", "experiment": "Binding affinity to […] Rotavirus CRW-8 VP8 at 3.5 mM by STD NMR spectrum"}, "Rotavirus [4]": {"system": "Rotavirus", "experiment": "Binding affinity to sialidase-insensitive Rotavirus Wa VP8 at 3.5 mM by STD NMR spectrum"}, "MA104 [5]": {"system": "MA104", "experiment": "Inhibition of Rotavirus Wa VP8-mediated infectivity in monkey MA104 cells at 10 mM after 1 hr by immunofluorescence assay", "format": "cell-based"}, "MA104 [6]": {"system": "MA104", "experiment": "Inhibition of Rotavirus Wa VP8-mediated binding to monkey MA104 cells at 10 mM after 1 hr by immunofluorescence assay in presence of sialidase", "format": "cell-based"}, "MA104 [7]": {"system": "MA104", "experiment": "Inhibition of Rotavirus Wa VP8-mediated binding to monkey MA104 cells at 10 mM after 1 hr by immunofluorescence assay", "format": "cell-based"}, "MA104 [8]": {"system": "MA104", "experiment": "Inhibition of Rotavirus Wa VP8-mediated infectivity in monkey MA104 cells at 10 mM after 1 hr by immunofluorescence assay in presence of sialidase", "format": "cell-based"}, "MA104 [9]": {"system": "MA104", "experiment": "Inhibition of Rotavirus CRW-8 VP8-mediated binding to monkey MA104 cells at 10 mM after 1 hr by immunofluorescence assay", "format": "cell-based"}, "MA104 [10]": {"system": "MA104", "experiment": "Inhibition of Rotavirus CRW-8 VP8-mediated infectivity in monkey MA104 cells at 10 mM after 1 hr by immunofluorescence assay", "format": "cell-based"}, "MA104 [11]": {"system": "MA104", "experiment": "Inhibition of Rotavirus CRW-8 VP8-mediated binding to monkey MA104 cells at 10 mM after 1 hr by immunofluorescence assay in presence of sialidase", "format": "cell-based"}, "MA104 [12]": {"system": "MA104", "experiment": "Inhibition of Rotavirus CRW-8 VP8-mediated infectivity in monkey MA104 cells at 10 mM after 1 hr by immunofluorescence assay in presence of sialidase", "format": "cell-based"}},
  "note": "Activity calls are given as the source filed them. The rule behind the calls is not given here.",
  "data": [
    {"smiles": "CC(=O)N[C@H]1[C@@H](O[C@@H]2[C@H](O[C@]3(C(=O)O)C[C@H](O)[C@@H](NC(C)=O)[C@H]([C@H](O)[C@H](O)CO)O3)[C@@H](O)[C@H](O[C@H]3[C@H](O)[C@@H](O)C(O)O[C@@H]3CO)O[C@@H]2CO)O[C@H](CO)[C@H](O)[C@@H]1O[C@@H]1O[C@H](CO)[C@H](O)[C@H](O[C@]2(C(=O)O)C[C@H](O)[C@@H](NC(C)=O)[C@H]([C@H](O)[C@H](O)CO)O2)[C@H]1O", "note": "(some centres not stated)", "values": [
      {"measurement": "Activity", "setting": "Rotavirus [1]", "result": "inactive"},
      {"measurement": "Activity", "setting": "Rotavirus [2]", "result": "Active"}
    ]},
    {"smiles": "CC(=O)N[C@H]1[C@@H](O[C@@H]2[C@H](O[C@]3(C(=O)O)C[C@H](O)[C@@H](NC(C)=O)[C@H]([C@H](O)[C@H](O)CO)O3)[C@@H](O)[C@H](O[C@H]3[C@H](O)[C@@H](O)C(O)O[C@@H]3CO)O[C@@H]2CO)O[C@H](CO)[C@H](O)[C@@H]1O[C@@H]1O[C@H](CO)[C@H](O)[C@H](O)[C@H]1O", "note": "(some centres not stated)", "values": [
      {"measurement": "Activity", "setting": "Rotavirus [3]", "result": "inactive"},
      {"measurement": "Activity", "setting": "Rotavirus [4]", "result": "Active"}
    ]},
    {"smiles": "CO[C@]1(C(=O)O)C[C@H](O)[C@@H](NC(C)=O)[C@H]([C@H](O)[C@H](O)CO)O1", "values": [
      {"measurement": "inhibition", "setting": "MA104 [5]", "result": "inactive"},
      {"measurement": "inhibition", "setting": "MA104 [6]", "result": "Active"},
      {"measurement": "inhibition", "setting": "MA104 [7]", "result": 45, "unit": "%"},
      {"measurement": "inhibition", "setting": "MA104 [8]", "result": 26, "unit": "%"},
      {"measurement": "inhibition", "setting": "MA104 [9]", "result": 35, "unit": "%"},
      {"measurement": "inhibition", "setting": "MA104 [10]", "result": 52, "unit": "%"},
      {"measurement": "Activity", "setting": "MA104 [11]", "result": "inactive"},
      {"measurement": "Activity", "setting": "MA104 [12]", "result": "inactive"}
    ]}
  ]
}
